The test system of one series is Aspergillus fumigatus. As to the kind of experiment: MIC against A. fumigatus (NCCLS broth dilution). The class given is cell-based. The note with it: for MIC: Aspergillus fumigatus, read-out: Minimum inhibitory concentration, A. fumigatus. The text has this:
(§1) To determine the antifungal activity of these compounds we screened for their minimum inhibitory concentrations (MIC) against the major dermatophytes that cause onychomycosis, T. rubrum and T. mentagrophytes, and against the yeasts and molds C. albicans, C. neoformans and A. fumigatus to test for their broad spectrum activity. The antifungal agent ciclopirox, currently in use for the topical treatment of onychomycosis, was used as a reference.
(§2) All MIC testing against Trichophyton rubrum, Trichophyton mentagrophytes, Candida albicans, Cryptococcus neoformans and Aspergillus fumigatus were determined following the National Committee for Clinical Laboratory Standards (NCCLS) guidelines for antimicrobial testing of yeasts and filamentous fungi.^i,ii
(§3) Two-fold serial dilutions of the test compounds were prepared in 96-well plates. […] Pfaller M A, Chaturvedi V, Espinel-Ingroff A, Ghannoum M A, Gosey L L, Odds F C, Rex J H, Rinaldi M G, Sheehan D J, Walsh T J, Warnock D W. NCCLS publication M27-A2—Reference Method for Broth Dilution Antifungal Susceptibility Testing of Yeasts; Approved Standard—Second Edition. […] Pfaller M A, Chaturvedi V, Espinel-Ingroff A, Ghannoum M A, Gosey L L, Odds F C, Rex J H, Rinaldi M G, Sheehan D J, Walsh T J, Warnock D W. NCCLS publication M38-A—Reference Method for Broth Dilution Antifungal Susceptibility Testing of Filamentous Fungi; Approved Standard.
A general note: In broth dilution the organism is exposed to a series of concentrations in liquid medium.

Another series concerns Candida albicans. The series is described as follows: MIC against C. albicans (NCCLS broth dilution). It counts as cell-based. The note with it: for MIC: Candida albicans, read-out: Minimum inhibitory concentration, C. albicans.
Excerpt: as §1, §2, §3

In series [1] the test system is Trichophyton mentagrophytes. As to the kind of experiment: MIC against T. mentagrophytes (NCCLS broth dilution). The note with it: for MIC: Trichophyton mentagrophytes, read-out: Minimum inhibitory concentration, T. mentagrophytes. It counts as cell-based.
Excerpt: as §1, §2, §3

The subject of the next series is Cryptococcus neoformans. As to the kind of experiment: MIC against C. neoformans (NCCLS broth dilution). It counts as cell-based. The note with it: for MIC: Cryptococcus neoformans, read-out: Minimum inhibitory concentration, C. neoformans.
Excerpt: as §1, §2, §3

The test system of another series is Trichophyton rubrum. As to the kind of experiment: MIC against T. rubrum (NCCLS broth dilution). The class given is cell-based. The note with it: for MIC: Trichophyton rubrum, read-out: Minimum inhibitory concentration, T. rubrum.
Excerpt: as §1, §2, §3

The mark [2] stands for this setting: Table 1, over 90% reduction of growth, 24-168 h at 35° C.

Values after ≈ are worked out from the molar mass of the structure shown. Read-outs that look alike come from different tables or passages of the source.

Consider `OB1OCc2cc(F)c(F)cc21` [19k, 5,6-Difluoro-1,3-dihydro-1-hydroxy-2,1-benzoxaborolane], for which the “Minimum inhibitory concentration, A. fumigatus” value in the series with Aspergillus fumigatus (Table 3, 1-hydroxy series (19)) was 2 mg/L (≈ 11.8 µM). The “Minimum inhibitory concentration, C. albicans” value in the series with Candida albicans (Table 3, 1-hydroxy series (19)) came to 4 mg/L (≈ 23.5 µM). In series [1] (Table 3, 1-hydroxy series (19)), the “Minimum inhibitory concentration, T. mentagrophytes” value was found to be 4 mg/L (≈ 23.5 µM). In the series on Cryptococcus neoformans (Table 3, 1-hydroxy series (19)), the “Minimum inhibitory concentration, C. neoformans” value is 2 mg/L (≈ 11.8 µM). For the same compound, in the series on Trichophyton rubrum (Table 3, 1-hydroxy series (19)), the “Minimum inhibitory concentration, T. rubrum” value amounted to 4 mg/L (≈ 23.5 µM).

Take `Fc1ccc(B2OCc3ccccc32)cc1` [9e, 1,3-Dihydro-1-(4-fluorophenyl)-2,1-benzoxaborole]: the melting point (as a rule, the temperature of the solid-liquid transition) fell in the range of 53 to 55 °C. Besides, the MIC in the series on Aspergillus fumigatus (Table 2, 1-phenyl series (9)) worked out at 2 mg/L (≈ 9.43 µM). Moreover, in the series with Candida albicans (Table 2, 1-phenyl series (9)), the MIC worked out at 4 mg/L (≈ 18.9 µM). Also, the MIC in series [1] (Table 2, 1-phenyl series (9)) was determined as 4 mg/L (≈ 18.9 µM). Besides, in the series with Cryptococcus neoformans (Table 2, 1-phenyl series (9)), the MIC was found to be 2 mg/L (≈ 9.43 µM). Moreover, the MIC in the series with Trichophyton rubrum (Table 2, 1-phenyl series (9)) stood at 8 mg/L (≈ 37.7 µM).

Turning to `OCc1ccc2c(c1)COB2O` [19h, 1,3-Dihydro-1-hydroxy-5-hydroxymethyl-2,1-benzoxaborole], the MIC in the series with Aspergillus fumigatus (Table 3, 1-hydroxy series (19)) was > 64 mg/L; in the series on Candida albicans (Table 3, 1-hydroxy series (19)), > 64 mg/L; in series [1] (Table 3, 1-hydroxy series (19)), 32 mg/L (≈ 195 µM); in the series on Cryptococcus neoformans (Table 3, 1-hydroxy series (19)), > 64 mg/L; in the series with Trichophyton rubrum (Table 3, 1-hydroxy series (19)), 64 mg/L (≈ 390 µM).

Consider `N#Cc1ccc2c(c1)COB2O` [19f, 5-Cyano-1,3-dihydro-1-hydroxy-2,1-benzoxaborolane], for which the “Minimum inhibitory concentration, A. fumigatus” value in the series on Aspergillus fumigatus (Table 3, 1-hydroxy series (19)) amounted to 8 mg/L (≈ 50.3 µM). The “Minimum inhibitory concentration, C. albicans” value with Candida albicans (Table 3, 1-hydroxy series (19)) was determined as 16 mg/L (≈ 101 µM). For the same compound, the “Minimum inhibitory concentration, T. mentagrophytes” value in series [1] (Table 3, 1-hydroxy series (19)) was determined as 8 mg/L (≈ 50.3 µM). Besides, the “Minimum inhibitory concentration, C. neoformans” value in the series with Cryptococcus neoformans (Table 3, 1-hydroxy series (19)) is 16 mg/L (≈ 101 µM). Further, in the series with Trichophyton rubrum (Table 3, 1-hydroxy series (19)), the “Minimum inhibitory concentration, T. rubrum” value came to 8 mg/L (≈ 50.3 µM).

Turning to `Fc1ccc2c(c1)COB2c1cccc(Cl)c1` [9f, 1-(3-Chlorophenyl)-1,3-dihydro-5-fluoro-2,1-benzoxaborole], the melting point was in the range of 112 to 114 °C. In the series on Aspergillus fumigatus (Table 2, 1-phenyl series (9)), the MIC is 2 mg/L (≈ 8.11 µM). Also, the MIC with Candida albicans (Table 2, 1-phenyl series (9)) worked out at 0.25 mg/L (≈ 1.01 µM). In series [1] (Table 2, 1-phenyl series (9)), the MIC stood at 8 mg/L (≈ 32.5 µM). The MIC in the series with Cryptococcus neoformans (Table 2, 1-phenyl series (9)) was 0.5 mg/L (≈ 2.03 µM). Further, in the series on Trichophyton rubrum (Table 2, 1-phenyl series (9)), the MIC amounted to 4 mg/L (≈ 16.2 µM).

With `C=CB1OCc2cc(F)ccc21` [compound 11, 1,3-Dihydro-5-fluoro-1-vinyl-2,1-benzoxaborole], the MIC in the series with Aspergillus fumigatus (setting [2]) was 2 mg/L (≈ 12.3 µM); in the series on Candida albicans (setting [2]) it was 1 mg/L (≈ 6.17 µM); in series [1] (setting [2]), 2 mg/L (≈ 12.3 µM); in the series with Cryptococcus neoformans (setting [2]) it was 4 mg/L (≈ 24.7 µM); in the series with Trichophyton rubrum (setting [2]), 4 mg/L (≈ 24.7 µM).

Regarding `Fc1ccc2c(c1)COB2c1ccsc1` [compound 13, 1,3-Dihydro-5-fluoro-1-(thiophen-3-yl)-2,1-benzoxaborole], the melting point lay in the range of 33 to 35 °C. In addition, the MIC in the series with Aspergillus fumigatus (setting [2]) stood at 1 mg/L (≈ 4.59 µM). Further, in the series on Candida albicans (setting [2]), the MIC turned out to be 1 mg/L (≈ 4.59 µM). Further, in series [1] (setting [2]), the MIC was 4 mg/L (≈ 18.3 µM). The MIC in the series on Cryptococcus neoformans (setting [2]) worked out at 1 mg/L (≈ 4.59 µM). Further, the MIC in the series on Trichophyton rubrum (setting [2]) is 1 mg/L (≈ 4.59 µM).

`Clc1cccc(B2OCc3ccccc32)c1` [9c, 1-(3-Chlorophenyl)-1,3-dihydro-2,1-benzoxaborole]: the MIC was 8 mg/L (≈ 35 µM) with Aspergillus fumigatus (Table 2, 1-phenyl series (9)); 8 mg/L (≈ 35 µM) with Candida albicans (Table 2, 1-phenyl series (9)); 8 mg/L (≈ 35 µM) in series [1] (Table 2, 1-phenyl series (9)); 4 mg/L (≈ 17.5 µM) in the series on Cryptococcus neoformans (Table 2, 1-phenyl series (9)); 16 mg/L (≈ 70 µM) with Trichophyton rubrum (Table 2, 1-phenyl series (9)).

For `Fc1ccc2c(c1)COB2c1ccoc1` [compound 12, 1,3-Dihydro-5-fluoro-1-(furan-3-yl)-2,1-benzoxaborole], the MIC (in the series with Aspergillus fumigatus (setting [2]); in the series on Candida albicans (setting [2]); in series [1] (setting [2]); in the series with Cryptococcus neoformans (setting [2]); in the series with Trichophyton rubrum (setting [2])) was 4 mg/L (≈ 19.8 µM) each time.

As for “1,3-Dihydro-1-hydroxy-2,1-naphtho[2,1-d]oxaborole [19j]”, in the series with Aspergillus fumigatus (Table 3, 1-hydroxy series (19)), the “Minimum inhibitory concentration, A. fumigatus” value was determined as 32 mg/L. Besides, the “Minimum inhibitory concentration, C. albicans” value in the series with Candida albicans (Table 3, 1-hydroxy series (19)) stood at 32 mg/L. In addition, the “Minimum inhibitory concentration, T. mentagrophytes” value in series [1] (Table 3, 1-hydroxy series (19)) stood at 2 mg/L. The “Minimum inhibitory concentration, C. neoformans” value in the series on Cryptococcus neoformans (Table 3, 1-hydroxy series (19)) turned out to be 32 mg/L. Besides, the “Minimum inhibitory concentration, T. rubrum” value with Trichophyton rubrum (Table 3, 1-hydroxy series (19)) is 4 mg/L.

Consider `Fc1cccc(B2OCc3ccccc32)c1` [9d, 1,3-Dihydro-1-(3-fluorophenyl)-2,1-benzoxaborole], for which the MIC worked out at 8 mg/L (≈ 37.7 µM) with Aspergillus fumigatus (Table 2, 1-phenyl series (9)); 4 mg/L (≈ 18.9 µM) in the series with Candida albicans (Table 2, 1-phenyl series (9)); 16 mg/L (≈ 75.5 µM) in series [1] (Table 2, 1-phenyl series (9)); 4 mg/L (≈ 18.9 µM) with Cryptococcus neoformans (Table 2, 1-phenyl series (9)); 8 mg/L (≈ 37.7 µM) in the series on Trichophyton rubrum (Table 2, 1-phenyl series (9)).

The values are drawn from patent US8106031B2, “Hydrolytically-resistant boron-containing therapeutics and methods of use” (Anacor Pharmaceuticals, Inc., priority 2006, dated 2012).
